The experiment concerns the target Acetylcholinesterase (Homo sapiens, UniProt P22303).
Chain of Acetylcholinesterase (P22303 whole entry): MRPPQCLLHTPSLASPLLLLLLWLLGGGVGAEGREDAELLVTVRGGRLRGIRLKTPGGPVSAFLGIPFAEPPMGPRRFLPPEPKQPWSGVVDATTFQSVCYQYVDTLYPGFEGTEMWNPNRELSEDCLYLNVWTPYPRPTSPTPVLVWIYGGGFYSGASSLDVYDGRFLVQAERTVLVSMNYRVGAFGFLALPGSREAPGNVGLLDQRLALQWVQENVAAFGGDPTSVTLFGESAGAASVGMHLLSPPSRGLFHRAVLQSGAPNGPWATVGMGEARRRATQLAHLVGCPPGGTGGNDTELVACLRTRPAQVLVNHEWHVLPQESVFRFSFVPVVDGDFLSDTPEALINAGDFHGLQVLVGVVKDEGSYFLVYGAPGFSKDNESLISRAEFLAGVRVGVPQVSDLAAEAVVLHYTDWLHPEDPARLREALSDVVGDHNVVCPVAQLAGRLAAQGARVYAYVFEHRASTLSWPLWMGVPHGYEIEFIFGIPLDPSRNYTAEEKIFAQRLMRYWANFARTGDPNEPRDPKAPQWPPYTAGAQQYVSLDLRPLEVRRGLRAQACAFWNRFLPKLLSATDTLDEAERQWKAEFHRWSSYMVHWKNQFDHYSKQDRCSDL
As a reminder, the IC50 is the point on the concentration scale where inhibition reaches its midpoint. `CC(=O)N(C)c1cccc2n1cc(-c1ccc(OC(=O)N(C)C)cc1)[n+]2C`: half-maximal inhibition (IC50) was put at 24.5 µM.
Molecule `CNC(=O)Oc1ccc(-c2cn3c(C)cccc3[n+]2C)cc1` came in with an IC50 of 4 µM.
For `CNC(=O)Oc1ccc(-c2cn3c(NC(C)=O)cccc3[n+]2C)cc1` the value was 1.1 µM; for `CN(C)C(=O)Oc1cccc(-c2cn3ccccc3[n+]2C)c1`, 7.1 µM; for `Cc1cccc2n1cc(-c1cccc(OC(=O)N(C)C)c1)[n+]2C`, 24 µM.
In turn, `CN(C)C(=O)Oc1cccc(-c2cn3c(C(F)(F)F)cccc3[n+]2C)c1` returned an IC50 of 33.6 µM.
Turning to `COc1cccc2n1cc(-c1cccc(OC(=O)N(C)C)c1)[n+]2C`, inhibition was half-maximal at 20.5 µM (IC50).
Molecule `CC(=O)Nc1cccc2n1cc(-c1cccc(OC(=O)N(C)C)c1)[n+]2C` yielded an IC50 of 2.5 µM.
As to `CNC(=O)Oc1cccc(-c2cn3ccccc3[n+]2C)c1`, the IC50 was determined as 0.35 µM.
Consider `COc1ccc2c(c1OC)C(=O)CC2CCC1CCN(Cc2ccccc2)CC1` (stereo not drawn), for which the IC50 is 0.008 µM.
`CCCCCCCNC(=O)Oc1ccc2c(c1)[C@]1(C)CCN(C)[C@@H]1C2` had an IC50 of 0.114 µM.
Turning to `CCCCCCNC(=O)Oc1ccc2c(c1)[C@]1(C)CCN(C)[C@@H]1C2`, it took 0.01 µM to reach half-maximal inhibition (IC50).
For the molecule `CNC(=O)Oc1cccc(-c2cn3c(NC(C)=O)cccc3[n+]2C)c1`, the IC50 worked out at 4.5 µM.
The result for `CCCCCCCNC(=O)Oc1ccc2c(c1)[C@]1(C)CCN(CC)[C@@H]1C2` reads 0.058 µM; that for `CN1CCCc2cc(C(=O)CCC3CCN(Cc4ccccc4)CC3)ccc21`, 0.024 µM.
For `O=C(CCC1CCN(Cc2ccccc2)CC1)c1ccc2c(c1)CCCN2`, 0.054 µM corresponded to half-maximal inhibition (IC50).
On to `O=C(CCC1CCN(Cc2ccccc2)CC1)c1ccc2c(c1)CCCN2c1ccccc1`, for which the IC50 was found to be 0.054 µM.
Turning to `CC(=O)Nc1cccc2n1cc(-c1ccc(OC(=O)N(C)C)cc1)[n+]2C`, it took 0.7 µM to reach half-maximal inhibition (IC50).
For the molecule `O=C(CCC1CCN(Cc2ccccc2)CC1)c1ccc2c(c1)N(c1ccccc1)CCC2`, the IC50 came to 1.49 µM.
`CNC(=O)Oc1ccc(-c2cn3ccccc3[n+]2C)cc1`: inhibition was half-maximal at 19.5 µM (IC50).
In turn, `CCN1CC[C@@]2(C)c3cc(OC(=O)NC)ccc3C[C@@H]12` showed an IC50 of 0.038 µM.
For `c1ccc(CN2CCC(CNc3nsc4ccccc34)CC2)cc1` the value was 0.099 µM; for `Cc1cn2cc(C(N)=O)ccc2[n+]1C`, 27 µM.
In turn, `CN(C)C(=O)Oc1ccc(-c2cn3ccccc3[n+]2C)cc1` returned an IC50 of 17.1 µM.
Regarding `CN(C)C(=O)Oc1ccc(-c2cn3c(C(F)(F)F)cccc3[n+]2C)cc1`, 10 µM corresponded to half-maximal inhibition (IC50).
In turn, `CCN1CC[C@@]2(C)c3cc(OC(=O)Nc4ccccc4)ccc3C[C@@H]12` registered an IC50 of 0.176 µM.
The molecule `CCCCCCNC(=O)Oc1ccc2c(c1)[C@]1(C)CCN(CCC)[C@@H]1C2` returned an IC50 of 0.062 µM.
Molecule `CCCCCCCNC(=O)Oc1ccc2c(c1)[C@]1(C)CCN(Cc3ccccc3)[C@@H]1C2` showed an IC50 of 0.506 µM.
In turn, `CCCCCCNC(=O)Oc1ccc2c(c1)C1CCN(CCC)C1C2` (stereo not drawn) showed an IC50 of 0.546 µM.
Consider `CN(C)C(=O)Nc1cccc2n1cc(-c1ccc(OC(=O)N(C)C)cc1)[n+]2C`, for which it took 1.6 µM to reach half-maximal inhibition (IC50).
Molecule `COc1cccc2n1cc(-c1ccc(OC(=O)N(C)C)cc1)[n+]2C` had an IC50 of 8.1 µM.
Turning to `CN(C)C(=O)Oc1ccc(-c2cn3c(NC=O)cccc3[n+]2C)cc1`, the IC50 was determined as 1.2 µM.
`CN(C)C(=O)Oc1ccc(-c2cn3c(NC(=O)c4ccccc4)cccc3[n+]2C)cc1` returned an IC50 of 0.2 µM.
Molecule `CNC(=O)Nc1cccc2n1cc(-c1ccc(OC(=O)N(C)C)cc1)[n+]2C` gave an IC50 of 1.35 µM.
Consider `CCCCNC(=O)Oc1ccc2c(c1)[C@]1(C)CCN(CC)[C@@H]1C2`, for which the IC50 was determined as 0.09 µM.
Molecule `CCCNC(=O)Oc1ccc2c(c1)[C@]1(C)CCN(CC)[C@@H]1C2` returned an IC50 of 0.154 µM.
In turn, `CCN1CC[C@@]2(C)c3cc(OC(=O)NC(C)c4ccccc4)ccc3C[C@@H]12` (stereo partly drawn) showed an IC50 of 1.33 µM.
`CN(C)C(=O)Oc1cccc(-c2cn3c(Cl)cccc3[n+]2C)c1` came in with an IC50 of 12.6 µM.
In turn, `C[n+]1c(-c2ccccc2)cn2cc(C(N)=O)ccc21` registered an IC50 of 9.5 µM.
The result for `COC(=O)Nc1ccc2n(c1)cc(-c1ccccc1)[n+]2C` reads 50 µM; that for `COC(=O)Nc1cccc2n1cc(-c1ccc(OC(=O)N(C)C)cc1)[n+]2C`, 1.1 µM; that for `c1ccc(CN2CCC(CNc3n[nH]c4ccccc34)CC2)cc1`, 0.12 µM.
The result for `CCCCCCCNC(=O)Oc1ccc2c(c1)[C@]1(C)CCN(CCC)[C@@H]1C2` reads 0.093 µM.
For `CCCCCCNC(=O)Oc1ccc2c(c1)[C@@H]1CCN(CC)[C@@H]1C2` the value was 0.208 µM; for `CCCCNC(=O)Oc1ccc2c(c1)C1CCN(CC)C1C2` (stereo not drawn), 1.08 µM; for `CCCNC(=O)Oc1ccc2c(c1)C1CCN(CC)C1C2` (stereo not drawn), 2.19 µM.
As for `CCN1CCC2c3cc(OC(=O)NC)ccc3CC21` (stereo not drawn), 0.253 µM corresponded to half-maximal inhibition (IC50).
In turn, `CCCCCCCNC(=O)Oc1ccc2c(c1)C1CCN(CCC)C1C2` (stereo not drawn) showed a half-inhibitory concentration (IC50) of 0.629 µM.
As for `CN(C)C(=O)Oc1ccc(-c2cn3c(Cl)cccc3[n+]2C)cc1`, half-maximal inhibition (IC50) was put at 12.6 µM.
The result for `Cc1cccc2n1cc(-c1ccc(OC(=O)N(C)C)cc1)[n+]2C` reads 1.3 µM; that for `O=C(CCC1CCN(Cc2ccccc2)CC1)c1ccc2c(c1)CCN2c1ccccc1`, 0.068 µM.
`CCCCCCCNC(=O)Oc1ccc2c(c1)[C@@H]1CCN(CC)[C@@H]1C2`: the IC50 came to 0.381 µM.
Regarding `O=C(c1ccc([N+](=O)[O-])cc1)N(CCC1CCN(Cc2ccccc2)CC1)c1ccccc1`, the IC50 was 0.0054 µM.
Molecule `COc1cccc(N(CCC2CCN(Cc3ccccc3)CC2)C(C)=O)c1` registered an IC50 of 0.046 µM.
For `O=C(c1ccc(F)cc1)N(CCC1CCN(Cc2ccccc2)CC1)c1ccccc1` the value was 0.018 µM.
Turning to `O=C(C1CCCCC1)N(CCC1CCN(Cc2ccccc2)CC1)c1ccccc1`, the IC50 stood at 9.4 µM.
With `CC(=O)N(CCC1CCN(Cc2ccccc2)CC1)c1cccc(F)c1`, the IC50 is 0.065 µM.
In turn, `CC(=O)N(CCC1CCN(Cc2ccccc2)CC1)c1ccncc1` gave an IC50 of 0.108 µM.
For `COc1ccc(N(CCC2CCN(Cc3ccccc3)CC2)C(C)=O)cc1` the value was 0.7 µM; for `CCC(=O)N(CCC1CCN(Cc2ccccc2)CC1)c1ccccc1`, 0.83 µM; for `COc1ccc(C(=O)N(CCC2CCN(Cc3ccccc3)CC2)c2ccccc2)cc1`, 0.59 µM.
`O=C(CCC1CCN(Cc2ccccc2Cl)CC1)c1ccc2c(c1)CCN2` showed a 50% inhibitory concentration (IC50) of 0.076 µM.
Regarding `Cc1cccc(CN2CCC(CCC(=O)c3ccc4c(c3)CCN4)CC2)c1`, the IC50 is 0.05 µM.
`COc1ccccc1CN1CCC(CCC(=O)c2ccc3c(c2)CCN3)CC1` registered an IC50 of 0.812 µM.
With `CCCN1CCCCc2ccc(C(=O)CCC3CCN(Cc4ccccc4)CC3)cc21`, 1.33 µM corresponded to half-maximal inhibition (IC50).
For `O=C(CCC1CCN(Cc2ccccc2)CC1)c1ccc2c(c1)N(Cc1ccccc1)CC2` the value was 0.853 µM.
As for `O=C(CCC1CCN(Cc2cccc([N+](=O)[O-])c2)CC1)c1ccc2c(c1)NCCCC2`, the IC50 is 0.39 µM.
The result for `O=C(CCC1CCN(Cc2cccc(F)c2)CC1)c1ccc2c(c1)NCCCC2` reads 0.145 µM; that for `CCN1CCc2cc(C(=O)CCC3CCN(Cc4ccccc4)CC3)ccc21`, 0.011 µM.
Molecule `O=C(CCC1CCN(Cc2cccc(F)c2)CC1)c1ccc2c(c1)CCN2` registered an IC50 of 0.016 µM.
As to `COc1ccccc1CN1CCC(CCC(=O)c2ccc3c(c2)NCCCC3)CC1`, 2.65 µM corresponded to half-maximal inhibition (IC50).
On to `CCN1CCCCc2ccc(C(=O)CCC3CCN(Cc4ccccc4)CC3)cc21`, for which inhibition was half-maximal at 0.376 µM (IC50).
On to `CN1CCc2cc(C(=O)CCC3CCN(Cc4ccccc4)CC3)ccc21`, for which the IC50 was found to be 0.01 µM.
For `CC(=O)N(CCC1CCN(Cc2ccccc2)CC1)c1ccc(F)cc1`, it took 0.205 µM to reach half-maximal inhibition (IC50).
As to `O=C(c1ccncc1)N(CCC1CCN(Cc2ccccc2)CC1)c1ccccc1`, the concentration for half-maximal inhibition (IC50) turned out to be 0.064 µM.
`CC(=O)N(CCC1CCN(Cc2ccccc2)CC1)c1ccccc1` came in with an IC50 of 0.052 µM.
For `CCCCCCNC(=O)Oc1ccc2c(c1)[C@]1(C)CCN(CC)[C@@H]1C2` the value was 0.045 µM.
For the molecule `O=C(CCC1CCN(Cc2cccc(Cl)c2)CC1)c1ccc2c(c1)NCCCC2`, half-maximal inhibition (IC50) required 0.333 µM.
For the molecule `O=C(c1ccccc1)N(CCC1CCN(Cc2ccccc2)CC1)c1ccccc1`, the IC50 was found to be 0.035 µM.
The result for `COc1cccc(CN2CCC(CCC(=O)c3ccc4c(c3)NCCCC4)CC2)c1` reads 0.847 µM.
The molecule `CCCCCN1CCc2cc(C(=O)CCC3CCN(Cc4ccccc4)CC3)ccc21` returned an IC50 of 0.047 µM.
`COc1cccc(CN2CCC(CCC(=O)c3ccc4c(c3)CCN4)CC2)c1` displayed a half-maximal inhibitory concentration (IC50) of 2.68 µM.
The result for `O=C(CCC1CCN(Cc2ccccc2)CC1)c1ccc2c(c1)NCCC2` reads 0.164 µM.
The result for `O=C(CCC1CCN(Cc2ccccc2F)CC1)c1ccc2c(c1)CCN2` reads 0.043 µM.
For `Cc1cccc(CN2CCC(CCC(=O)c3ccc4c(c3)NCCCC4)CC2)c1`, the IC50 amounted to 0.224 µM.
The molecule `O=C(CCC1CCN(Cc2ccccc2)CC1)c1ccc2c(c1)NCC2` returned an IC50 of 0.113 µM.
`CCCN1CCc2cc(C(=O)CCC3CCN(Cc4ccccc4)CC3)ccc21` returned an IC50 of 0.022 µM.
`O=C(CCC1CCN(Cc2ccccc2)CC1)c1ccc2c(c1)NCCCCC2`: the IC50 is 0.127 µM.
For `CN1CCCCc2ccc(C(=O)CCC3CCN(Cc4ccccc4)CC3)cc21` the value was 0.081 µM; for `O=C(CCC1CCN(Cc2cccc(Cl)c2)CC1)c1ccc2c(c1)CCN2`, 0.059 µM; for `O=C(CCC1CCN(Cc2ccc(F)cc2)CC1)c1ccc2c(c1)CCN2`, 0.089 µM.
The molecule `CCCCN1CCc2cc(C(=O)CCC3CCN(Cc4ccccc4)CC3)ccc21` returned an IC50 of 0.029 µM.
The molecule `O=C(CCC1CCN(Cc2ccccc2)CC1)c1ccc2c(c1)N(Cc1ccccc1)CCCC2` showed an IC50 of 3.14 µM.
Regarding `O=C(CCC1CCN(Cc2ccccc2)CC1)c1ccc2c(c1)CCN2`, the IC50 was found to be 0.02 µM.
Consider `O=C(CCC1CCN(Cc2ccccc2)CC1)c1ccc2c(c1)CCCCN2`, for which the IC50 came out at 0.125 µM.
`O=C(CCC1CCN(Cc2ccc(Cl)cc2)CC1)c1ccc2c(c1)CCN2` had an IC50 of 6.36 µM.
`O=C(CCC1CCN(Cc2ccc(F)cc2)CC1)c1ccc2c(c1)NCCCC2`: the IC50 came out at 0.393 µM.
Regarding `CN1CCCc2ccc(C(=O)CCC3CCN(Cc4ccccc4)CC3)cc21`, the half-maximal inhibitory concentration (IC50) came out at 0.036 µM.

These data come from ChEMBL document CHEMBL1155460, “Prediction of acetylcholinesterase inhibitors and characterization of correlative molecular descriptors by machine learning methods” (Eur J Med Chem, 2010).
